Several values for one entry are separate records, joined by “and”; a condition that tells them apart may be missing. Identical values can stand only once. ± gives the expanded uncertainty stated by the source.
Details: Gas, Frequency=0.005 MHz, Spherical cavity resonance method

CC [ethane]
Details | speed of sound
280.01 K, 500.43 kPa | 294.64 ± 0.049 m/s and 294.65 ± 0.049 m/s and 294.64 ± 0.048 m/s
280.02 K, 500.43 kPa | 294.65 ± 0.049 m/s and 294.65 ± 0.05 m/s
280.02 K, 500.44 kPa | 294.65 ± 0.049 m/s
319.55 K, 463.5 kPa | 316.22 ± 0.048 m/s
319.55 K, 463.51 kPa | 316.22 ± 0.048 m/s
319.95 K, 464.08 kPa | 316.4 ± 0.048 m/s
319.95 K, 464.09 kPa | 316.4 ± 0.048 m/s
324.99 K, 479.74 kPa | 318.64 ± 0.049 m/s
324.99 K, 479.75 kPa | 318.65 ± 0.051 m/s
325 K, 479.75 kPa | 318.65 ± 0.05 m/s and 318.65 ± 0.051 m/s
325 K, 479.76 kPa | 318.65 ± 0.05 m/s
339.37 K, 492.93 kPa | 325.4 ± 0.075 m/s
339.89 K, 493.66 kPa | 325.64 ± 0.075 m/s
359.27 K, 522.1 kPa | 334.3 ± 0.049 m/s
359.27 K, 522.11 kPa | 334.3 ± 0.049 m/s
359.85 K, 523.03 kPa | 334.57 ± 0.048 m/s and 334.57 ± 0.05 m/s
365 K, 479.42 kPa | 337.34 ± 0.051 m/s and 337.34 ± 0.052 m/s
365.01 K, 479.42 kPa | 337.35 ± 0.051 m/s and 337.35 ± 0.052 m/s
365.01 K, 479.43 kPa | 337.34 ± 0.051 m/s and 337.35 ± 0.053 m/s
379.19 K, 551.11 kPa | 342.95 ± 0.049 m/s
379.76 K, 551.9 kPa | 343.19 ± 0.049 m/s
379.77 K, 551.9 kPa | 343.19 ± 0.049 m/s
399.22 K, 579.97 kPa | 351.41 ± 0.049 m/s
399.8 K, 580.93 kPa | 351.69 ± 0.05 m/s and 351.69 ± 0.049 m/s
404.98 K, 531.39 kPa | 354.23 ± 0.05 m/s
404.98 K, 531.4 kPa | 354.23 ± 0.051 m/s
404.98 K, 531.41 kPa | 354.22 ± 0.05 m/s
419.45 K, 608.87 kPa | 359.75 ± 0.053 m/s
419.46 K, 608.88 kPa | 359.76 ± 0.053 m/s
419.91 K, 609.51 kPa | 359.94 ± 0.054 m/s
419.92 K, 609.52 kPa | 359.95 ± 0.053 m/s
444.98 K, 496.44 kPa | 370.72 ± 0.052 m/s
444.98 K, 496.45 kPa | 370.72 ± 0.053 m/s and 370.72 ± 0.052 m/s and 370.72 ± 0.054 m/s
444.99 K, 496.45 kPa | 370.72 ± 0.053 m/s
484.95 K, 497.52 kPa | 386.13 ± 0.056 m/s
484.95 K, 497.53 kPa | 386.13 ± 0.056 m/s
484.95 K, 497.54 kPa | 386.13 ± 0.055 m/s
484.95 K, 497.55 kPa | 386.14 ± 0.055 m/s
484.95 K, 497.56 kPa | 386.14 ± 0.055 m/s
484.96 K, 497.55 kPa | 386.14 ± 0.055 m/s and 386.14 ± 0.056 m/s
484.96 K, 539.51 kPa | 386 ± 0.055 m/s
484.96 K, 539.52 kPa | 386 ± 0.056 m/s and 386 ± 0.057 m/s
